Measured values from patent US20240374635A1, “COMPOSITIONS AND METHODS” (Glasport Bio Limited, priority 2021, published 2024).
Where two headings read alike, the source gives them in different places.

Tests used:
[1] = tested on: cattle; test: In vivo rumen ORP in cattle with ORP measurement bolus
Protocol: Experimental: An in vivo study was conducted to investigate the effect of feed additives of the invention on rumen ORP in cattle. The study involved administering an ORP measurement bolus to each cow to allow for an ORP reading to be recorded every 10 minutes, dividing the cattle into three groups: a control group (receiving feed without any feed additive of the invention), low dose (receiving 100 g CaO2 per day along with feed—with the additive being delivered at a single morning feeding) and a high dose group (receiving 200 g CaO2 per day along with feed—with the additive being delivered at a single morning feeding). The rumen was opened after approximately 450 hours.
The results of this study are given in FIG. 20 which charts the ORP level in the rumen (mV) over time measured at 10-minute intervals for the control group, the low-dose group, and the high-dose group respectively.
An average baseline ORP reading measured for the animals from the control group is about −440 mV. This average baseline ORP reading of about −440 mV may be useful to aid comparison between control ORP and increases in ORP due to the animals consuming the additive. After approximately 450 hours the rumen was opened and the ORP results after this time point should be disregarded.

[2] = for Average Weight Gain: day 1 to day 49; for Average Daily DMI: group average; for Gain:Feed Ratio: group basis; for Average Finishing Weight / Average Starting Weight: group of 20 sheep
Protocol: Experimental: A study was conducted to determine what impact consumption of the feed additives would have on animal performance. It is estimated that between 2-12% of the energy content of animal feed is lost through enteric fermentation. This study examined whether though potential reductions in enteric fermentation additional energy would be diverted to the animal, with this being seen via an improved feed:gain metric, that is the ability of the animal to improve the rate of increase in its body weight per unit of feed eaten. 60 adult ewes (average starting body weight of approximately 80 kg) were divided into 3 equal groups of 20 sheep per group. Animals were fed as described in the Animal Study—Methane Emissions above. Animals were grouped into a control group (no feed additive given); treatment group 1 (2.355 g Urea-Hydrogen Peroxide given daily); treatment group 2 (4.71 g Urea-Hydrogen Peroxide given daily).
Animals were weighed at the start of the experiment (day 1) and at the end of the study (day 49). All feed (DMI) consumed was weighed and recorded throughout the study.
A feed:gain ratio was calculated as follows: […]
The ratio of weight gain to DMI was then calculated to determine the feed efficiency of each animal.

[3] = tested on: adult ewes
Protocol: A methane emission study was carried out to determine the impact of feeding different doses of the feed additive would have on enteric fermentation. […] Any refused concentrate/additive was recorded. Sheep then had ad libitum access to grass silage and water throughout the day, with the amount of silage eaten recorded for each animal.
Body weights of all animals were recorded at the start of the experiment (‘week 1’) and after 49 days (‘week 7’).
Methane emissions were recorded through use of Portable Accumulation Chambers (PAC). Briefly: these are sealed chambers in which individual animals remain for a 1 hour time period. During this time period methane, oxygen and carbon dioxide measurements are taken at 0 minutes, 25 minutes and 50 minutes. […] Animals were placed in the PAC on week 1 and […] as defined above. 12 adult ewes, at least 2 years old, were divided into 2 groupings of 6 sheep. One group received a 2.355 g dose of Urea-Hydrogen Peroxide (termed Group 1) per day and the other received a 4.71 g dose of Urea-Hydrogen Peroxide (termed Group 2) per day.
Control Group: Sheep were fed 0.5 kg of feed concentrate comprising animal feed, on a daily basis over a 7 week period.
Treatment Group 1 (UHP 0.5X): Sheep were fed 0.5 kg of feed concentrate comprising the same animal feed as the control group and 0.15% (by weight) of urea hydrogen peroxide, on a daily basis over a 7 week period.
Treatment Group 2 (UHP 1X): Sheep were fed 0.5 kg of feed concentrate comprising the same animal feed as the control group and 0.3% (by weight) of urea hydrogen peroxide, on a daily basis over a 7 week period.

[4] = Treatment Group 1, 2.355 g UHP per day
[5] = Treatment Group 1, 2.355 g UHP per day, Week 1
[6] = Treatment Group 1, 2.355 g UHP per day, Week 7
[7] = Treatment Group 2, 4.71 g UHP per day
[8] = Treatment Group 2, 4.71 g UHP per day, Week 1
[9] = Treatment Group 2, 4.71 g UHP per day, Week 7

With `[Ca+2].[O-][O-]` [CaO2, calcium peroxide] the “increase of ORP in the rumen after each morning feed” value ([1]; 100 g or 200 g CaO2 per day with feed, sustained period of at least one hour) was “at least +100 mV” and the “initial period (correction phase) of the ORP profile” value ([1]; 100 g or 200 g CaO2 per day, temporary reductions below baseline between administrations) was 300 to 350 h.
With `NC(N)=O.OO` [urea hydrogen peroxide] the “Average Weight Gain” value ([2]; Treatment 1, 2.355 g UHP daily) was 5.65 kg, the “Average Daily DMI” value ([2]; Treatment 1, 2.355 g UHP daily) was 1.6345 kg and the “Gain:Feed Ratio” value ([2]; Treatment 1, 2.355 g UHP daily) was 0.0864. The “Average Finishing Weight” value ([2]; Treatment 1, 2.355 g UHP daily) was 82.55 kg, the “Average Starting Weight” value ([2]; Treatment 1, 2.355 g UHP daily) was 76.9 kg and the “Average Weight Gain” value ([2]; Treatment 2, 4.71 g UHP daily) was 6.325 kg. For the same compound, the “Average Daily DMI” value ([2]; Treatment 2, 4.71 g UHP daily) was 1.516 kg, the “Gain:Feed Ratio” value ([2]; Treatment 2, 4.71 g UHP daily) was 0.1043 and the “Average Finishing Weight” value ([2]; Treatment 2, 4.71 g UHP daily) was 81.275 kg. For the same compound, the “Average Starting Weight” value ([2]; Treatment 2, 4.71 g UHP daily) was 74.95 kg, the “weight gain versus control group” value ([2]; treatment groups) was “gained more weight on average than the control group” and the “CH4/BW Difference week 7 versus week 1” value [3, 4] was 11.24%. The “CH4/day Difference week 7 versus week 1” value [3, 4] was 5.828%, the “CH4/BW (group mean)” value [3, 5] was 0.3705 litres of methane per kg of animal body weight and the “CH4/day (group mean)” value [3, 5] was 29.32. For the same compound, the “CH4/BW (group mean)” value [3, 6] was 0.3288 litres of methane per kg of animal body weight, the “CH4/day (group mean)” value [3, 6] was 27.61 and the “CH4/BW Difference week 7 versus week 1” value [3, 7] was 22.61%. For the same compound, the “CH4/day Difference week 7 versus week 1” value [3, 7] was 18.04%, the “CH4/BW (group mean)” value [3, 8] was 0.3753 litres of methane per kg of animal body weight and the “CH4/day (group mean)” value [3, 8] was 29.82. The “CH4/BW (group mean)” value [3, 9] was 0.2905 litres of methane per kg of animal body weight, the “CH4/day (group mean)” value [3, 9] was 24.44 and the “methane production by week 7” value ([3]; treatment groups, feed concentrate comprising urea hydrogen peroxide) was “significant decrease in methane production”.
